Measured values published in publication PMC11882969 (Nature Communications, 2025).
Where “and” joins values, the source holds several entries; their conditions need not be identical. Identical values can stand only once.

Target: hCB2 (Homo sapiens, UniProt P34972)
Assay: bioSensAll ebBRET signaling profiling, hCB2
Assay type: cell-based
Set-up: host or cells: HEK293SL cells, transient PEI transfection
Conditions: for RE, relative efficacy: vs CP-55,940; for G13 hCB2 / G15 hCB2 / Gq hCB2 / Gs hCB2: raw signal
[1] = Log [Compound] (M) not printed (line after -13)

Sequence of hCB2 (P34972 whole entry): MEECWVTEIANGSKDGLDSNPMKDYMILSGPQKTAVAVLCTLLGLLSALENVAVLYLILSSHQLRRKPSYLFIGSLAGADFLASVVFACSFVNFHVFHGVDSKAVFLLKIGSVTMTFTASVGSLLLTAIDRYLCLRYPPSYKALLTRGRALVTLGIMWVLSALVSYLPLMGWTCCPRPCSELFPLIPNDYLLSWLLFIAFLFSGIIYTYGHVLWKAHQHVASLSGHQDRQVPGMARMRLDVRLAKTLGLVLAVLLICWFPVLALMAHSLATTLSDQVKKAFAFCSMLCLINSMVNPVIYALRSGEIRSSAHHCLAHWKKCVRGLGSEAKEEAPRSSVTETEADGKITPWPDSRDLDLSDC

## COC(=O)[C@@](C)(NC(=O)c1cc(C)n(-c2cccc(C(F)(F)F)c2)n1)c1cccs1 [‘1350]
Log [Compound] (M) -4.22186
  Barr2+GRK2 hCB2: 44.1172 and 39.7347
  Gi1 hCB2: 74.4771 and 77.5324
  Gi2 hCB2: 66.5499
  GoB hCB2: 56.9391 and 70.3563
  Gz hCB2: 58.5774 and 64.6863
  G13 hCB2: 370
  G15 hCB2: 861
  Gq hCB2: 1817
  Gs hCB2: 9372
Log [Compound] (M) -4.63927
  Barr2+GRK2 hCB2: 32.763 and 29.7899
  Gi1 hCB2: 72.942 and 75.6692
  Gi2 hCB2: 60.7879
  GoB hCB2: 56.4664 and 67.1616
  Gz hCB2: 78.3049 and 53.5883
  G13 hCB2: 318
  G15 hCB2: 875
  Gq hCB2: 1909
  Gs hCB2: 9159
Log [Compound] (M) -5.05788
  Barr2+GRK2 hCB2: 29.8124 and 18.7956
  Gi1 hCB2: 74.0429 and 76.6089
  Gi2 hCB2: 58.4001
  GoB hCB2: 54.53 and 64.4448
  Gz hCB2: 66.9683 and 41.1092
  G13 hCB2: 339
Log [Compound] (M) -5.47381
  Barr2+GRK2 hCB2: 34.9292 and 20.8945
  Gi1 hCB2: 72.8179 and 79.0878
  Gi2 hCB2: 60.2299
  GoB hCB2: 53.5084 and 63.1367
  Gz hCB2: 56.2566 and 45.2442
Log [Compound] (M) -5.89285
  Barr2+GRK2 hCB2: 30.1859 and 15.2974
  Gi1 hCB2: 75.9346 and 71.3757
  Gi2 hCB2: 59.8925
  GoB hCB2: 55.4448 and 59.3006
  Gz hCB2: 73.8416 and 43.9289
Log [Compound] (M) -6.31878
  Barr2+GRK2 hCB2: 31.1196 and 18.9955
  Gi1 hCB2: 70.1509 and 73.9032
  Gi2 hCB2: 59.7627
  GoB hCB2: 55.1551 and 56.3448
  Gz hCB2: 71.9968 and 45.6141
Log [Compound] (M) -6.72585
  Barr2+GRK2 hCB2: 25.5172 and 13.5483
  Gi1 hCB2: 69.1585 and 77.5649
  Gi2 hCB2: 61.5795
  GoB hCB2: 54.5452 and 57.5649
  Gz hCB2: 45.4258 and 40.2871
Log [Compound] (M) -7.14267
  Barr2+GRK2 hCB2: 30.2979 and 16.2969
  Gi1 hCB2: 65.6232 and 81.2265
  Gi2 hCB2: 58.2833
  GoB hCB2: 51.8616 and 63.3506
  Gz hCB2: 50.5436 and 34.8285
Log [Compound] (M) -7.55284
  Barr2+GRK2 hCB2: 26.2642 and 26.7415
  Gi1 hCB2: 64.5377 and 66.7095
  Gi2 hCB2: 59.5551
  GoB hCB2: 57.4727 and 58.7094
  Gz hCB2: 50.2461 and 38.3305
Log [Compound] (M) -8
  Barr2+GRK2 hCB2: 20.9979 and 17.0465
  Gi1 hCB2: 54.8465 and 52.1925
  Gi2 hCB2: 54.4549
  GoB hCB2: 47.1654 and 53.6784
Log [Compound] (M) -8.22186
  Barr2+GRK2 hCB2: 23.9859 and 16.2469
  Gi1 hCB2: 56.5677 and 32.8473
  Gi2 hCB2: 55.2855
  GoB hCB2: 43.0943 and 48.7228
  Gz hCB2: 50.1568 and 46.2389
Log [Compound] (M) -8.39794
  Gi1 hCB2: 38.2861 and 47.0726
  Gi2 hCB2: 44.5921
  GoB hCB2: 29.1733 and 38.4595
Log [Compound] (M) -8.68787
  Gi1 hCB2: 27.0908 and 14.9764
  Gi2 hCB2: 26.6573
  GoB hCB2: 22.9675 and 22.9513
Log [Compound] (M) -9.15521
  Gi2 hCB2: 7.477
Log [Compound] (M) -9.61989
  Gi2 hCB2: -6.111
Log [Compound] (M) -10.0969
  Gi2 hCB2: -9.55
Log [Compound] (M) -10.5529
  Gi2 hCB2: -9.589
Log [Compound] (M) -11.0177
  Gi2 hCB2: -8.914
Log [Compound] (M) -11.4949
  Gi2 hCB2: -12.1971
Log [Compound] (M) -11.9208
  Gi2 hCB2: -11.8078
Log [Compound] (M) -12.3979
  Gi2 hCB2: -13.4949
Log [Compound] (M) -12.8861
  Gi2 hCB2: -11.678
Log [Compound] (M) -13
  Gi2 hCB2: -15.0781
  Gz hCB2: -3.497
[1]
  Barr2+GRK2 hCB2: -10.739
  GoB hCB2: 0.1984
  Gz hCB2: 0.9754
hCB2 Gi1
  pEC50 [95% CI]: 8.45 [8.4 – 8.5]
  RE, relative efficacy: 0.29
hCB2 Gi2
  pEC50 [95% CI]: 8.79 [8.7 – 8.9]
  RE, relative efficacy: 0.40
hCB2 GoB
  pEC50 [95% CI]: 8.58 [8.5 – 8.7]
  RE, relative efficacy: 0.40
hCB2 Gz
  RE, relative efficacy: 0.22
hCB2 ßarr2+GRK2
  RE, relative efficacy: 0.92
